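A five-concentration, 48-hour dose response in 96-well plates underlies each endpoint, interpolated linearly between surrounding concentrations. At the GI50, growth is halved.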 Calls of active or inactive are those of the source. No stated cut-off is given here; in the data, active = GI50 up to about 1.1 µM and inactive = higher.
Columns and labels:
Assay in all cases: DTP human tumour cell line panel, 48 h
EKVX = test system: EKVX
HCC 2998 = test system: HCC 2998
TK-10 = test system: TK-10
HT-29 = test system: HT-29
U-251 = test system: U-251
MOLT-4 = test system: MOLT-4
SF-295 = test system: SF-295
RXF 393 = test system: RXF 393
HOP-62 = test system: HOP-62
OVCAR-8 = test system: OVCAR-8
SNB-75 = test system: SNB-75
UACC-62 = test system: UACC-62
A549 = test system: A549
Malme-3M = test system: Malme-3M
CCRF-CEM = test system: CCRF-CEM
SK-OV-3 = test system: SK-OV-3
SN12C = test system: SN12C
HCT-116 = test system: HCT-116
SK-MEL-5 = test system: SK-MEL-5
CAKI-1 = test system: CAKI-1

Measured: GI50

COc1ccc(C(O)/C(=N\NC(N)=S)c2nc3ccc([N+](=O)[O-])cc3nc2O)cc1OC (stereo unspecified)
inactive: EKVX > 100 µM | HCC 2998 > 100 µM | TK-10 > 100 µM | HT-29 > 100 µM | U-251 > 100 µM | MOLT-4 78.3 µM | SF-295 > 100 µM | RXF 393 > 100 µM | HOP-62 > 100 µM | OVCAR-8 > 100 µM | SNB-75 > 100 µM | UACC-62 > 100 µM | A549 > 100 µM | Malme-3M > 100 µM | CCRF-CEM > 100 µM | SK-OV-3 > 100 µM

CCCc1c(-c2ccccc2)[nH]c2ccccc2c1=O
inactive: EKVX 37.6 µM | SN12C 89.1 µM | HCC 2998 25.2 µM | TK-10 32.6 µM | HT-29 22.6 µM | U-251 51.3 µM | MOLT-4 > 100 µM | SF-295 > 100 µM | HCT-116 24.3 µM | RXF 393 > 100 µM | HOP-62 34.1 µM | UACC-62 40.5 µM | Malme-3M 33 µM | CCRF-CEM 41.3 µM | SK-OV-3 42.3 µM

C/C(=C\c1ccccc1)C(=O)CCN1CCOCC1
inactive: EKVX 27.8 µM | SN12C 18.2 µM | HCC 2998 16.7 µM | HT-29 18.8 µM | U-251 18.1 µM | MOLT-4 19.1 µM | SF-295 > 100 µM | HCT-116 28 µM | RXF 393 19.7 µM | SK-MEL-5 33 µM | HOP-62 > 100 µM | OVCAR-8 20.5 µM | SNB-75 23.7 µM | UACC-62 17.6 µM | A549 > 90.8 µM | Malme-3M 17.5 µM | CAKI-1 18.1 µM | CCRF-CEM 30.6 µM | SK-OV-3 > 100 µM

Cc1cc(C)c(NC(=O)/C=C/c2ccccc2)c(C)c1
inactive: EKVX > 100 µM | HCC 2998 > 100 µM | TK-10 > 100 µM | HT-29 > 100 µM | U-251 > 100 µM | MOLT-4 7.64 µM | SF-295 87.1 µM | RXF 393 > 100 µM | HOP-62 38.9 µM | OVCAR-8 > 100 µM | SNB-75 3.93 µM | UACC-62 22.9 µM | A549 > 100 µM | CCRF-CEM > 100 µM | SK-OV-3 > 100 µM

C#CC(O)(c1nc2ccccc2s1)c1nc2ccccc2s1
inactive: EKVX 19.3 µM | SN12C 17.8 µM | TK-10 36.6 µM | HT-29 27.2 µM | U-251 18.7 µM | MOLT-4 28.8 µM | SF-295 24 µM | HCT-116 16.3 µM | RXF 393 18.6 µM | SK-MEL-5 15.6 µM | HOP-62 26.2 µM | OVCAR-8 22 µM | UACC-62 12.3 µM | A549 29 µM | Malme-3M 27 µM | CAKI-1 23.5 µM | CCRF-CEM 27.4 µM

c1ccc(Nc2nnc(-c3nsc4ccccc34)o2)cc1
inactive: EKVX 51.3 µM | SN12C 71.1 µM | HCC 2998 > 100 µM | TK-10 > 100 µM | HT-29 > 100 µM | U-251 31.4 µM | MOLT-4 > 100 µM | HCT-116 74.1 µM | RXF 393 51.5 µM | SK-MEL-5 > 100 µM | HOP-62 32.9 µM | OVCAR-8 48.4 µM | SNB-75 34.9 µM | UACC-62 > 100 µM | A549 > 100 µM | CCRF-CEM 71.1 µM

CSCSCC(CO)NC(=O)/C(C)=C\c1c(C)[nH]c(=O)[nH]c1=O (stereo unspecified)
inactive: EKVX > 250 µM | SN12C > 250 µM | HCC 2998 > 250 µM | HT-29 > 250 µM | U-251 > 250 µM | MOLT-4 > 250 µM | SF-295 > 250 µM | HCT-116 > 250 µM | RXF 393 > 250 µM | SK-MEL-5 > 250 µM | HOP-62 > 250 µM | OVCAR-8 > 250 µM | SNB-75 > 250 µM | UACC-62 > 250 µM | A549 > 250 µM | Malme-3M > 250 µM | CAKI-1 18.3 µM | CCRF-CEM > 250 µM | SK-OV-3 > 250 µM

C1=C2C3=[N+](CCCCC3)CC2Cc2ccsc21 (stereo unspecified)
inactive: EKVX 53.5 µM | SN12C 67.9 µM | TK-10 59.8 µM | HT-29 32.8 µM | U-251 17.2 µM | MOLT-4 > 100 µM | SF-295 44.3 µM | HCT-116 > 100 µM | RXF 393 > 100 µM | SK-MEL-5 53 µM | HOP-62 > 100 µM | OVCAR-8 76.6 µM | SNB-75 29.9 µM | UACC-62 > 100 µM | A549 21.5 µM | Malme-3M 39.9 µM | CAKI-1 > 100 µM | CCRF-CEM > 100 µM | SK-OV-3 > 100 µM

C=CC1(c2ccc3ccccc3c2)OCC(CC)O1 (stereo unspecified)
inactive: EKVX 25.1 µM | SN12C 36.7 µM | HCC 2998 94.2 µM | TK-10 > 100 µM | HT-29 29.6 µM | U-251 57 µM | MOLT-4 25.6 µM | SF-295 61.5 µM | HCT-116 40.9 µM | RXF 393 53.8 µM | SK-MEL-5 47 µM | HOP-62 1.21 µM | OVCAR-8 > 100 µM | SNB-75 30 µM | UACC-62 13.6 µM | A549 47.9 µM | Malme-3M 30.5 µM | CCRF-CEM 29.6 µM | SK-OV-3 > 100 µM

COC1=C(OC)C(=O)c2cc(SC)c(=O)c(SC)cc2C1=O
inactive: EKVX 21.2 µM | SN12C 14.7 µM | HCC 2998 > 100 µM | TK-10 59 µM | HT-29 > 100 µM | U-251 17.9 µM | MOLT-4 3.79 µM | SF-295 15.7 µM | HCT-116 20 µM | RXF 393 4.9 µM | SK-MEL-5 12.4 µM | HOP-62 15 µM | OVCAR-8 12.1 µM | SNB-75 13.6 µM | UACC-62 2.12 µM | A549 22.6 µM | CAKI-1 72.4 µM | CCRF-CEM 2.34 µM | SK-OV-3 36.4 µM

COc1cc2c(cc1OC)C1Cc3cc(OC)c(OC)cc3C(C2)O1
inactive: EKVX > 100 µM | SN12C > 100 µM | HCC 2998 > 100 µM | TK-10 > 100 µM | HT-29 > 100 µM | U-251 > 100 µM | MOLT-4 49.1 µM | SF-295 95.7 µM | HCT-116 > 100 µM | RXF 393 > 100 µM | HOP-62 > 100 µM | OVCAR-8 > 100 µM | SNB-75 > 100 µM | UACC-62 > 100 µM | A549 > 100 µM | CAKI-1 44.9 µM | CCRF-CEM 60.1 µM | SK-OV-3 > 100 µM

CC(=O)Oc1ccc(C2COc3cc(OC(C)=O)c(OC(C)=O)cc3C2)cc1 (stereo unspecified)
inactive: EKVX 17.3 µM | SN12C 22.4 µM | HCC 2998 21.3 µM | HT-29 49.3 µM | U-251 13.2 µM | MOLT-4 18.3 µM | SF-295 22.2 µM | HCT-116 17.4 µM | RXF 393 13.6 µM | SK-MEL-5 2.95 µM | HOP-62 25.4 µM | OVCAR-8 18 µM | SNB-75 6.07 µM | UACC-62 10.1 µM | A549 22.3 µM | Malme-3M 16.5 µM | CAKI-1 16.3 µM | CCRF-CEM 7.57 µM | SK-OV-3 20.7 µM

N#CCCN(c1ccc(/C=N/c2cccc([N+](=O)[O-])c2)cc1)S(=O)(=O)c1ccccc1
inactive: EKVX > 100 µM | SN12C > 100 µM | HCC 2998 > 100 µM | TK-10 > 100 µM | HT-29 > 100 µM | MOLT-4 > 100 µM | SF-295 > 100 µM | HCT-116 > 100 µM | HOP-62 > 100 µM | OVCAR-8 > 100 µM | SNB-75 75.2 µM | UACC-62 > 100 µM | A549 > 100 µM | Malme-3M > 100 µM | CAKI-1 > 100 µM | CCRF-CEM > 100 µM | SK-OV-3 > 100 µM

CCOC(=O)C1=C(c2ccccc2)N(C(C)=O)Cc2ccccc21
inactive: EKVX 29.6 µM | SN12C 21.9 µM | HCC 2998 24.7 µM | TK-10 45.3 µM | HT-29 16.3 µM | U-251 17.2 µM | MOLT-4 12 µM | SF-295 13.9 µM | HCT-116 14.5 µM | RXF 393 19.4 µM | SK-MEL-5 12.6 µM | HOP-62 19.6 µM | OVCAR-8 21.3 µM | SNB-75 18.6 µM | UACC-62 12.2 µM | A549 18.4 µM | Malme-3M 19.1 µM | CCRF-CEM 16.4 µM | SK-OV-3 29.9 µM

CN1CCc2[nH]c3ccccc3c2C1
inactive: EKVX > 100 µM | SN12C > 100 µM | HCC 2998 > 100 µM | HT-29 > 100 µM | U-251 > 100 µM | MOLT-4 > 100 µM | SF-295 > 100 µM | HCT-116 > 100 µM | RXF 393 > 100 µM | SK-MEL-5 > 100 µM | HOP-62 > 100 µM | OVCAR-8 > 100 µM | SNB-75 > 100 µM | UACC-62 > 100 µM | A549 > 100 µM | Malme-3M > 100 µM | CAKI-1 > 100 µM | CCRF-CEM > 100 µM | SK-OV-3 > 100 µM

Reference: ChEMBL document CHEMBL1201862, “PubChem BioAssay data set” (2004)
